Data from ChEMBL document CHEMBL1201862, “PubChem BioAssay data set” (2004).
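All cell lines were grown in 96-well plates and treated with compound for 48 hours. GI50 is the concentration that inhibits growth by half.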 Activity calls are given as the source filed them. Rule as the data show it: active = GI50 up to about 1.1 µM and inactive = higher.

Experiments:
Assay in all cases: growth of human tumour cells (NCI), 48 h
CCRF-CEM = test system: CCRF-CEM
MDA-N = test system: MDA-N
SF-268 = test system: SF-268
M14 = test system: M14
RPMI-8226 = test system: RPMI-8226
LOX IMVI = test system: LOX IMVI
SW-620 = test system: SW-620
A549 = test system: A549
U-251 = test system: U-251
KM12 = test system: KM12
IGROV-1 = test system: IGROV-1
Malme-3M = test system: Malme-3M
NCI-H23 = test system: NCI-H23
MDA-MB-231 = test system: MDA-MB-231
T47D = test system: T47D
OVCAR-3 = test system: OVCAR-3
SR = test system: SR
UACC-62 = test system: UACC-62
OVCAR-4 = test system: OVCAR-4
DU-145 = test system: DU-145
BT-549 = test system: BT-549
OVCAR-8 = test system: OVCAR-8
NCI-H460 = test system: NCI-H460
NCI-H522 = test system: NCI-H522
NCI/ADR-RES = test system: NCI/ADR-RES
RXF 393 = test system: RXF 393
HL-60 = test system: HL-60
HT-29 = test system: HT-29
UACC-257 = test system: UACC-257
MOLT-4 = test system: MOLT-4
786-0 = test system: 786-0
TK-10 = test system: TK-10
UO-31 = test system: UO-31
SK-MEL-28 = test system: SK-MEL-28
SNB-19 = test system: SNB-19
K562 = test system: K562
CAKI-1 = test system: CAKI-1
HCT-116 = test system: HCT-116
MCF7 = test system: MCF7
SF-295 = test system: SF-295
HOP-92 = test system: HOP-92
SF-539 = test system: SF-539
MDA-MB-435 = test system: MDA-MB-435
Hs-578T = test system: Hs-578T
PC-3 = test system: PC-3
OVCAR-5 = test system: OVCAR-5
SNB-75 = test system: SNB-75
SK-MEL-5 = test system: SK-MEL-5
COLO 205 = test system: COLO 205
A498 = test system: A498
NCI-H226 = test system: NCI-H226
ACHN = test system: ACHN
SN12C = test system: SN12C
HOP-62 = test system: HOP-62
SK-OV-3 = test system: SK-OV-3
SK-MEL-2 = test system: SK-MEL-2
HCT-15 = test system: HCT-15
EKVX = test system: EKVX
HCC 2998 = test system: HCC 2998

## CC(=O)OCC1OC(n2c3c(c(-c4ccc(C)cc4)c(C#N)c2=S)C(=O)CC(C)(C)C3)C(OC(C)=O)C(OC(C)=O)C1OC(C)=O (centres undefined)
CCRF-CEM
  GI50: 31.6 µM (inactive)
MDA-N
  GI50: 15.7 µM (inactive)
SF-268
  GI50: 28.6 µM (inactive)
M14
  GI50: 35.5 µM (inactive)
RPMI-8226
  GI50: 27.5 µM (inactive)
LOX IMVI
  GI50: 13.3 µM (inactive)
SW-620
  GI50: 46 µM (inactive)
A549
  GI50: 50.4 µM (inactive)
U-251
  GI50: 30.3 µM (inactive)
KM12
  GI50: 36.4 µM (inactive)
IGROV-1
  GI50: 50.1 µM (inactive)
Malme-3M
  GI50: > 100 µM (inactive)
NCI-H23
  GI50: 42.8 µM (inactive)
MDA-MB-231
  GI50: 23.4 µM (inactive)
T47D
  GI50: > 10 µM (inactive)
OVCAR-3
  GI50: 70 µM (inactive)
SR
  GI50: 24.1 µM (inactive)
UACC-62
  GI50: 18.9 µM (inactive)
OVCAR-4
  GI50: > 10 µM (inactive)
DU-145
  GI50: 50.4 µM (inactive)
BT-549
  GI50: 19.3 µM (inactive)
OVCAR-8
  GI50: 36.4 µM (inactive)
NCI-H460
  GI50: 42.2 µM (inactive)
NCI-H522
  GI50: 30.8 µM (inactive)
NCI/ADR-RES
  GI50: 57.4 µM (inactive)
RXF 393
  GI50: 23.3 µM (inactive)
HL-60
  GI50: 23.5 µM (inactive)
HT-29
  GI50: 27.3 µM (inactive)
UACC-257
  GI50: 18.5 µM (inactive)
MOLT-4
  GI50: 25.1 µM (inactive)
786-0
  GI50: 33.7 µM (inactive)
TK-10
  GI50: > 100 µM (inactive)
UO-31
  GI50: 58.5 µM (inactive)
SK-MEL-28
  GI50: 26.2 µM (inactive)
SNB-19
  GI50: > 100 µM (inactive)
K562
  GI50: 22.7 µM (inactive)
CAKI-1
  GI50: 52.5 µM (inactive)
HCT-116
  GI50: 34.8 µM (inactive)
MCF7
  GI50: 25.6 µM (inactive)
SF-295
  GI50: 25.5 µM (inactive)
HOP-92
  GI50: 45.5 µM (inactive)
SF-539
  GI50: 23.3 µM (inactive)
MDA-MB-435
  GI50: 27 µM (inactive)
Hs-578T
  GI50: 47.5 µM (inactive)
PC-3
  GI50: 18.3 µM (inactive)
OVCAR-5
  GI50: > 100 µM (inactive)
SNB-75
  GI50: 23.9 µM (inactive)
SK-MEL-5
  GI50: 26.9 µM (inactive)
COLO 205
  GI50: 37.3 µM (inactive)
A498
  GI50: 32.1 µM (inactive)
NCI-H226
  GI50: 23.3 µM (inactive)
ACHN
  GI50: 39 µM (inactive)
SN12C
  GI50: 17.6 µM (inactive)
HOP-62
  GI50: 62.5 µM (inactive)

## O=c1oc2ccccc2cc1-c1csc(Nc2ccc(F)cc2)n1
CCRF-CEM
  GI50: 2.77 µM (inactive)
MDA-N
  GI50: 4.66 µM (inactive)
SF-268
  GI50: 3.15 µM (inactive)
M14
  GI50: 4.25 µM (inactive)
RPMI-8226
  GI50: 0.216 µM (active)
LOX IMVI
  GI50: 4.7 µM (inactive)
SW-620
  GI50: 5 µM (inactive)
A549
  GI50: 1.67 µM (inactive)
U-251
  GI50: 2.83 µM (inactive)
SK-OV-3
  GI50: 5.77 µM (inactive)
KM12
  GI50: 5.5 µM (inactive)
IGROV-1
  GI50: 4.99 µM (inactive)
NCI-H23
  GI50: 2.9 µM (inactive)
SK-MEL-2
  GI50: 14.8 µM (inactive)
MDA-MB-231
  GI50: 11.3 µM (inactive)
T47D
  GI50: 2.3 µM (inactive)
OVCAR-3
  GI50: 6.55 µM (inactive)
SR
  GI50: 2.36 µM (inactive)
UACC-62
  GI50: 12.6 µM (inactive)
OVCAR-4
  GI50: 7.31 µM (inactive)
DU-145
  GI50: 2.89 µM (inactive)
BT-549
  GI50: 6.47 µM (inactive)
OVCAR-8
  GI50: 2.77 µM (inactive)
NCI-H460
  GI50: 5.05 µM (inactive)
NCI-H522
  GI50: 1.91 µM (inactive)
NCI/ADR-RES
  GI50: 3.46 µM (inactive)
RXF 393
  GI50: 6.56 µM (inactive)
HL-60
  GI50: 4.59 µM (inactive)
HT-29
  GI50: 3.43 µM (inactive)
UACC-257
  GI50: 14.8 µM (inactive)
MOLT-4
  GI50: 5.18 µM (inactive)
786-0
  GI50: 1.79 µM (inactive)
TK-10
  GI50: 2.98 µM (inactive)
UO-31
  GI50: 2.33 µM (inactive)
SK-MEL-28
  GI50: 0.382 µM (active)
SNB-19
  GI50: 8.15 µM (inactive)
K562
  GI50: 2.56 µM (inactive)
CAKI-1
  GI50: 2.94 µM (inactive)
HCT-116
  GI50: 2.33 µM (inactive)
HCT-15
  GI50: 2.86 µM
MCF7
  GI50: 2.77 µM (inactive)
SF-295
  GI50: 3.62 µM (inactive)
HOP-92
  GI50: 6.53 µM (inactive)
SF-539
  GI50: 1.91 µM (inactive)
MDA-MB-435
  GI50: 4.32 µM (inactive)
Hs-578T
  GI50: 2.36 µM (inactive)
PC-3
  GI50: 5.43 µM (inactive)
OVCAR-5
  GI50: 8.38 µM (inactive)
SNB-75
  GI50: 2.07 µM (inactive)
EKVX
  GI50: 1.97 µM (inactive)
SK-MEL-5
  GI50: 10.4 µM (inactive)
HCC 2998
  GI50: 5.48 µM (inactive)
COLO 205
  GI50: 4.47 µM (inactive)
A498
  GI50: 1.29 µM (inactive)
NCI-H226
  GI50: 3.1 µM (inactive)
ACHN
  GI50: 8.55 µM (inactive)
SN12C
  GI50: 3.01 µM (inactive)
HOP-62
  GI50: 2.99 µM (inactive)

## O=C(c1cccc(F)c1F)N1CCc2c([nH]c3ccccc23)C1c1ccc2c(c1)OCO2 (centres undefined)
CCRF-CEM
  GI50: 5.83 µM (inactive)
MDA-N
  GI50: 2.42 µM (inactive)
SF-268
  GI50: 27.3 µM (inactive)
M14
  GI50: 3.85 µM (inactive)
RPMI-8226
  GI50: 8.2 µM (inactive)
LOX IMVI
  GI50: 20.2 µM (inactive)
SW-620
  GI50: 9.71 µM (inactive)
A549
  GI50: 7.08 µM (inactive)
U-251
  GI50: 11.1 µM (inactive)
SK-OV-3
  GI50: 3.61 µM (inactive)
KM12
  GI50: 4.92 µM (inactive)
IGROV-1
  GI50: 16.2 µM (inactive)
Malme-3M
  GI50: 28.4 µM (inactive)
NCI-H23
  GI50: 11.7 µM (inactive)
SK-MEL-2
  GI50: 4.2 µM (inactive)
MDA-MB-231
  GI50: 7.87 µM (inactive)
T47D
  GI50: 10.6 µM (inactive)
OVCAR-3
  GI50: 1.64 µM (inactive)
SR
  GI50: 3.61 µM (inactive)
UACC-62
  GI50: 5.24 µM (inactive)
OVCAR-4
  GI50: 11.1 µM (inactive)
DU-145
  GI50: 18.2 µM (inactive)
BT-549
  GI50: 40.3 µM (inactive)
OVCAR-8
  GI50: 31.3 µM (inactive)
NCI-H460
  GI50: 6.56 µM (inactive)
NCI-H522
  GI50: 7.8 µM (inactive)
NCI/ADR-RES
  GI50: 5.56 µM (inactive)
RXF 393
  GI50: 4.99 µM (inactive)
HL-60
  GI50: 3.4 µM (inactive)
HT-29
  GI50: 8.32 µM (inactive)
UACC-257
  GI50: 11.2 µM (inactive)
MOLT-4
  GI50: 5.24 µM (inactive)
786-0
  GI50: 22.5 µM (inactive)
TK-10
  GI50: 22.5 µM (inactive)
UO-31
  GI50: 10.9 µM (inactive)
SK-MEL-28
  GI50: 32.1 µM (inactive)
SNB-19
  GI50: 7.76 µM (inactive)
K562
  GI50: 4.22 µM (inactive)
CAKI-1
  GI50: 15.5 µM (inactive)
HCT-116
  GI50: 8 µM (inactive)
HCT-15
  GI50: 3.73 µM
MCF7
  GI50: 4.27 µM (inactive)
SF-295
  GI50: 3.09 µM (inactive)
HOP-92
  GI50: 26.5 µM (inactive)
SF-539
  GI50: 4.79 µM (inactive)
MDA-MB-435
  GI50: 2.23 µM (inactive)
Hs-578T
  GI50: 23.8 µM (inactive)
PC-3
  GI50: 2.97 µM (inactive)
OVCAR-5
  GI50: 30.1 µM (inactive)
SNB-75
  GI50: 1.99 µM (inactive)
EKVX
  GI50: 8.32 µM (inactive)
SK-MEL-5
  GI50: 3.63 µM (inactive)
COLO 205
  GI50: 3.59 µM (inactive)
A498
  GI50: 7.55 µM (inactive)
ACHN
  GI50: 18.8 µM (inactive)
SN12C
  GI50: 14.3 µM (inactive)
HOP-62
  GI50: 0.337 µM (active)
